In patent US4681882A, “4-alkoxy-pyrido[2,3-d]pyrimidine derivatives” (Godecke Aktiengesellschaft, priority 1984, dated 1987):

What was measured:
[1] = test system: arteria basilaris vessel rings; assay: Inhibition of K^+ depolarization contraction of isolated vessel rings (a. basilaris) in the organ bath; format: cell-based; settings: rabbit a. basilaris rings, mean diameter 0.5-1.0 mm, potassium depolarization in Tyrode's solution, read-out: Concentration (IC50) effecting a semimaximal inhibition of the K^+ -depolarization contraction of vessel rings, a. basilaris
Source text: (§1) Of rabbits (vessel ring segments of arteria basilaris and a. coronaria are mounted in an organ bath in a way to allow the measurement of isometric contractions. Contractile activity is elicited by a potassium depolarization in Tyrode's solution. This experimental set-up is a well-known standard model for the identification of substances blocking the calcium channels opened during the potassium depolarization (Fleckenstein, Calcium Antagonism in Heart and Smooth Muscle, J. Wiley & Sons, 1983).
(§2) Concentrations (IC50, mol/l) of compounds effecting a semimaxi-
(§3) mal inhibition of the K^+ -depolarization contraction of vessel
(§4) in the organ bath. A. bas. = arteria basilaris, a cor. = arteria
(§5) coronaria of the rabbit; mean diameter 0.5-1.0 mm.

[2] = test system: arteria coronaria vessel rings; assay: Inhibition of K^+ depolarization contraction of isolated vessel rings (a. coronaria) in the organ bath; format: cell-based; settings: rabbit a. coronaria rings, mean diameter 0.5-1.0 mm, potassium depolarization in Tyrode's solution, read-out: Concentration (IC50) effecting a semimaximal inhibition of the K^+ -depolarization contraction of vessel rings, a. coronaria
Source text: as §1, §2, §3, §4, §5

Compound | IC50 [1] [nM] | IC50 [2] [nM]
COCCOC(=O)C1=C(C)Nc2ncnc(OC(C)C)c2C1c1cccc([N+](=O)[O-])c1 (racemic) [Example 1b, (±)-5,8-Dihydro-4-isopropoxy-7-methyl-5-(3-nitrophenyl)pyrido[2,3-d]pyrimidine-6-carboxylic acid(2-methoxy)ethyl ester] | 39 | 34
COC(=O)C1=C(C)Nc2ncnc(OC(C)C)c2C1c1ccccc1C(F)(F)F (racemic) [Example 1c, (±)-5,8-Dihydro-4-isopropoxy-7-methyl-5-(2-trifluromethylphenyl)pyrido[2,3-d]pyrimidine-6-carboxylic acid methyl ester] | 40 | 45
CC1=C(C(=O)OC(C)C)C(c2cccc([N+](=O)[O-])c2)c2c(ncnc2OC(C)C)N1 (racemic) [Example 1d, (±)-5,8)Dihydro-4-isopropoxy-7-methyl-5-(3-nitrophenyl)pyrido[2,3-d]pyrimidine-6-carboxylic acid isopropyl ester] | 33 | 160
CCOC(=O)C1=C(N)Nc2ncnc(OC(C)C)c2C1c1ccccc1OC (racemic) [Example 1e, (±)-7-Amino-5,8-dihydro-4-isopropoxy-5-(2-methoxyphenyl)pyrido[2,3-d]pyrimidine-6-carboxylic acid ethyl ester] | 2800 | 73
CCOC(=O)C1=C(C)Nc2ncnc(OC(C)C)c2C1c1ccccc1C(F)(F)F (racemic) [Example 1f, (±)-5,8-Dihydro-4-isopropoxy-7-methyl-5-(2-trifluoromethylphenyl)pyrido[2,3-d]pyrimidine-6-carboxylic acid ethyl ester] | 38 | 34
COC(=O)C1=C(C)Nc2ncnc(OC(C)C)c2C1c1cccc([N+](=O)[O-])c1 (racemic) [Example 1g, (±)-5,8-Dihydro-4-isopropoxy-7-methyl-5-(3-nitrophenyl)pyrido[2,3-d]pyrimidine-6-carboxylic acid methyl ester] | 28 | 230
COc1ncnc2c1C(c1cccc([N+](=O)[O-])c1)C(C(=O)OC(C)C)=C(C)N2 (racemic) [Example 2, (±)-5,8-Dihydro-4-methoxy-7-methyl-5-(3-nitrophenyl)pyrido[2,3-d]pyrimidine-6-carboxylic acid isopropyl ester] | 2.5 | 140
